Assay results from patent US20060013804A1, “Modulation of stem cell differentiation by modulation of caspase-3 activity” (Ottawa Health Research Institute, priority 2002, published 2006).

Tested on: neurospheres
Assay: Cytotoxicity observed in neurosphere cultures
Type: cell-based, mouse
Settings: neurosphere experiments
From the text: Under growth conditions, neurospheres readily stained for nestin, an intermediate protein highly expressed in early neuronal progenitors (Lendahl et al., Cell 60, 585-595). […] Subsequently, we compared neural differentiation without caspase 3 activity. […] Increased expression of GFAP, MBP are characteristic with the early formation of astrocytes and oligodendrocytes respectively (Gage, F. H. (2000) Science 287, 1433-1438).

CC(=O)N[C@@H](CC(=O)O)C(=O)N[C@@H](CCC(=O)O)C(=O)N[C@H](C(=O)N[C@H](C=O)CC(=O)O)C(C)C [Ac-DEVD-CHO]
cytotoxicity: high levels of cytotoxicity
